Measured values as given in PMC8857278, “Incomplete tricarboxylic acid cycle and proton gradient in Pandoravirus massiliensis: is it still a virus?” (The ISME Journal, 2021).

Tests used:
[1] = tested on: T1, human IDH; conditions: 37 °C, 100 µL, kit buffer; NAD+ or NADP+ co-substrate not specified; varied substrate implied to be isocitrate
T1 construct: gene IDH1

[2] = tested on: T2, ORF132; assay: isocitrate dehydrogenase activity assay kit, absorbance […] nm, NADH standard curve, Michaelis-Menten fit; type: biochemical, Pandoravirus massiliensis; conditions: 37 °C, 100 µL, kit buffer; NAD+ or NADP+ co-substrate not specified; varied substrate implied to be isocitrate
T2 construct: full-length ORF, 146 residues; N-terminal Strep-tag, codon-optimised synthetic gene in pET22b(+); E. coli BL21(DE3); StrepTrap purified

With `O=C(O)C[C@H](C(=O)O)[C@@H](O)C(=O)O` [isocitrate] the Km [1] was 585 µM and the Km [2] was 51.8 µM.
